# Patent US11477982B2, “2-amino-5-oxyalkyl-pyrimidine derivatives and their use for controlling undesired plant growth” (Bayer CropScience Aktiengesellschaft, priority 2017, dated 2022)
# What was measured:
# Assay type in all cases: in vivo
# [1] = test system: AMARE: Amaranthus retroflexus; test: Pre-emergence herbicidal effect; settings: for Herbicidal action against AMARE: pre-emergence; for Herbicidal efficacy against AMARE: Table 4b, pre-emergence as titled, dosage 80 g of a.i./ha
# Excerpt: (§1) 1. Pre-Emergence Herbicidal Effect and Crop Plant Compatibility
# (§2) Seeds of monocotyledonous and dicotyledonous weed plants and crop plants are placed in plastic or wood fiber pots and covered with soil. The compounds of the invention, formulated in the form of wettable powders (WP) or as emulsion concentrates (EC), are then applied onto the surface of the covering soil as aqueous suspension or emulsion with addition of 0.5% additive at a water application rate of 600 l/ha (converted).
# (§3) After the treatment, the pots are placed in a greenhouse and kept under good growth conditions for the trial plants. After about 3 weeks, the effect of the preparations is scored visually in comparison with untreated controls as percentages. For example, 100% activity=the plants have died, 0% activity=like control plants.
# [2] = test system: MATIN: Matricaria inodora; test: Pre-emergence herbicidal effect; settings: for Herbicidal action against MATIN: pre-emergence, dosage 320 g/ha; for Herbicidal efficacy against MATIN: Table 4b, pre-emergence as titled, dosage 80 g of a.i./ha
# Excerpt: as §1, §2, §3
# [3] = test system: POLCO: Polygonum convolvulus; test: Pre-emergence herbicidal effect; settings: for Herbicidal efficacy against POLCO: Table 4a, dosage 20 g of a.i./ha
# Excerpt: as §1, §2, §3
# VERPE: Veronica persica = test: Pre-emergence herbicidal effect; settings: dosage 320 g/ha
# Excerpt: as §1, §2, §3
# VIOTR: Viola tricolor = test: Pre-emergence herbicidal effect; settings: dosage 320 g/ha
# Excerpt: as §1, §2, §3
# AVEFA: Avena fatua = test: Pre-emergence herbicidal effect
# Excerpt: as §1, §2, §3
# HORMU: Hordeum murinum = test: Pre-emergence herbicidal effect; settings: for Herbicidal action against HORMU: pre-emergence; for Herbicidal efficacy against HORMU: Table 4b, pre-emergence as titled, dosage 80 g of a.i./ha
# Excerpt: as §1, §2, §3
# PHBPU: Ipomoea purpurea = test: Pre-emergence herbicidal effect; settings: for Herbicidal efficacy against PHBPU: Table 4a, dosage 20 g of a.i./ha
# Excerpt: as §1, §2, §3
# STEME: Stellaria media [4] = test: Post-emergence herbicidal effect
# Experimental: (§4) 2. Post-Emergence Herbicidal Effect and Crop Plant Compatibility
# (§5) Seeds of monocotyledonous and dicotyledonous weeds and crop plants are placed in sandy loam in plastic or wood-fiber pots, covered with soil and cultivated in a greenhouse under controlled growth conditions, 2 to 3 weeks after sowing, the test plants are treated at the one-leaf stage. The compounds of the invention, formulated in the form of wettable powders (WP) or as emulsion concentrates (EC), are then sprayed onto the green parts of the plants as aqueous suspension or emulsion with addition of 0.5% additive at a water application rate of 600 l/ha (converted). After the test plants had been kept in the greenhouse under optimum growth conditions for about 3 weeks, the activity of the preparations is rated visually in comparison to untreated controls. For example, 100% activity=the plants have died, 0% activity=like control plants.
# [5] = test system: ABUTH: Abutilon theophrasti; test: Post-emergence herbicidal effect; settings: dosage 320 g/ha
# Experimental: as §4, §5
# [6] = test system: AMARE: Amaranthus retroflexus; test: Post-emergence herbicidal effect; settings: dosage 320 g/ha
# Experimental: as §4, §5
# [7] = test system: ECHCG: Echinochloa crus-galli; test: Post-emergence herbicidal effect; settings: dosage 320 g/ha
# Experimental: as §4, §5
# [8] = test system: ABUTH: Abutilon theophrasti; test: Pre-emergence herbicidal effect; settings: for Herbicidal efficacy against ABUTH: Table 4a, dosage 20 g of a.i./ha
# Excerpt: as §1, §2, §3
# [9] = test system: ALOMY: Alopecurus myosuroides; test: Pre-emergence herbicidal effect
# Excerpt: as §1, §2, §3
# [10] = test system: ECHCG: Echinochloa crus-galli; test: Pre-emergence herbicidal effect
# Excerpt: as §1, §2, §3
# LOLRI: Lolium rigidum = test: Pre-emergence herbicidal effect; settings: for Herbicidal efficacy against LOLRI: Table 4a, dosage 20 g of a.i./ha
# Excerpt: as §1, §2, §3
# SETVI: Setaria viridis = test: Pre-emergence herbicidal effect
# Excerpt: as §1, §2, §3
# STEME: Stellaria media [11] = test: Pre-emergence herbicidal effect; settings: Table 4b; pre-emergence as titled; dosage 80 g of a.i./ha
# Excerpt: as §1, §2, §3
# [12] = Table 4a, pre-emergence, dosage 20 g of a.i./ha
# [13] = Table 4b, pre-emergence as titled, dosage 80 g of a.i./ha
SMILES,Herbicidal action against AMARE ([1]; dosage 320 g/ha) [%],Herbicidal action against MATIN [2] [%],Herbicidal action against POLCO ([3]; dosage 320 g/ha) [%],Herbicidal action against VERPE (VERPE: Veronica persica) [%],Herbicidal action against VIOTR (VIOTR: Viola tricolor) [%],also measured
CC(C)(O)c1cnc(NC2CCOc3ccccc32)nc1 (racemic) [Example 1.9],100,100,100,100,100,–
Cc1cccc2c1CCCC2Nc1ncc(C(C)(C)O)cn1 (racemic) [Example 1.41],100,100,100,100,100,–
COc1cccc2c1CCCC2Nc1ncc(C(C)(C)O)c(C)n1 (racemic) [Example 1.44],100,100,100,100,100,–
"Cc1ccc2c(c1)[C@H](Nc1ncc([C@H](C)O)c(N)n1)[C@@H](C)C2 (racemic) [drawing 5, reference compound]",–,–,–,–,–,Herbicidal action against AVEFA (AVEFA: Avena fatua; dosage 80 g/ha): 20%; Herbicidal action against AVEFA (AVEFA: Avena fatua; dosage 320 g/ha): 60%
"Cc1ccc2c(c1)[C@H](Nc1ncc([C@H](C)O)c(N)n1)[C@@H](C)C2 (racemic) [drawing 8, reference compound]",–,–,–,–,–,Herbicidal action against HORMU (HORMU: Hordeum murinum; dosage 320 g/ha): 20%; Herbicidal action against PHBPU (PHBPU: Ipomoea purpurea; dosage 320 g/ha): 20%
"Cc1ccc2c(c1)[C@H](Nc1ncc([C@H](C)O)c(N)n1)[C@@H](C)C2 (racemic) [drawing 15, reference compound]",–,–,–,–,–,Herbicidal action against STEME (STEME: Stellaria media [4]; dosage 80 g/ha): 70%
Cc1ccc2c(c1)[C@H](Nc1ncc(C(C)OCc3ccc(F)cc3)cn1)[C@@H](C)C2 (some centres unmarked) [Example 1.3],100,100,80,100,100,–
Cc1ccc2c(c1)[C@H](Nc1ncc(C(C)(C#N)O[Si](C)(C)C)cn1)[C@@H](C)C2 (some centres unmarked) [Example 1.16],100,100,100,100,100,–
Cc1ccc2c(c1)[C@H](Nc1ncc(C(C)O)c(C(C)F)n1)[C@@H](C)C2 (some centres unmarked) [Example 1.19],100,100,100,100,100,–
Cc1ccc2c(c1)[C@H](Nc1ncc(C(C)(O)c3ccccc3)cn1)[C@@H](C)C2 (some centres unmarked) [Example 1.21],100,100,100,100,100,–
Cc1ccc2c(c1)[C@H](Nc1ncc(C(C)(O)CC(C)C)cn1)[C@@H](C)C2 (some centres unmarked) [Example 1.25],100,100,100,100,100,–
Cc1ccc2c(c1)[C@H](Nc1ncc(C(C)(O)Cc3ccccc3)cn1)[C@@H](C)C2 (some centres unmarked) [Example 1.26],100,100,100,100,100,–
CC(C)=CC(C)(O)c1cnc(N[C@H]2c3cc(C)ccc3C[C@@H]2C)nc1 (some centres unmarked) [Example 1.27],100,100,100,100,100,–
C=CCCC(C)(O)c1cnc(N[C@H]2c3cc(C)ccc3C[C@@H]2C)nc1 (some centres unmarked) [Example 1.28],100,100,100,100,100,–
Cc1nc(N[C@@H]2CCc3ccccc32)ncc1C(C)O (some centres unmarked) [Example 1.47],100,100,100,100,100,–
Cc1ccc2c(c1)[C@H](Nc1ncc(C(C)O)c(C)n1)CCO2 (some centres unmarked) [Example 1.49],100,100,100,100,100,Herbicidal action against ABUTH [5]: 80%; Herbicidal action against AMARE [6]: 90%; Herbicidal action against ECHCG [7]: 80%; Herbicidal action against STEME (STEME: Stellaria media [4]; dosage 320 g/ha): 90%
"Cc1ccc2c(c1)[C@H](Nc1ncc(C(C)(C)O)c(N)n1)[C@@H](C)C2 [drawing 4, reference compound]",–,–,–,–,–,"Herbicidal action against ABUTH ([8]; dosage 80 g/ha): 20%; Herbicidal action against ABUTH ([8]; dosage 320 g/ha): 60%; Herbicidal action against ALOMY ([9]; pre-emergence, dosage 80 g/ha): 30%; Herbicidal action against ALOMY ([9]; pre-emergence, dosage 320 g/ha): 60%; Herbicidal action against AVEFA (AVEFA: Avena fatua; dosage 80 g/ha): 10 10%; Herbicidal action against AVEFA (AVEFA: Avena fatua; dosage 320 g/ha): 10 10%; Herbicidal action against ECHCG ([10]; pre-emergence, dosage 80 g/ha): 30%; Herbicidal action against LOLRI (LOLRI: Lolium rigidum; dosage 80 g/ha): 40%; Herbicidal action against SETVI (SETVI: Setaria viridis; pre-emergence, dosage 80 g/ha): 30%"
"Cc1ccc2c(c1)[C@H](Nc1ncc(C(C)(C)O)c(N)n1)[C@@H](C)C2 [drawing 6, reference compound]",–,–,–,–,–,Herbicidal action against AMARE ([1]; dosage 80 g/ha): 40%; Herbicidal action against HORMU (HORMU: Hordeum murinum; dosage 80 g/ha): 20%; Herbicidal action against PHBPU (PHBPU: Ipomoea purpurea; dosage 80 g/ha): 0%; Herbicidal action against PHBPU (PHBPU: Ipomoea purpurea; dosage 320 g/ha): 0%; Herbicidal action against POLCO ([3]; dosage 80 g/ha): 0%
"Cc1cc2c(s1)CCCC2Nc1ncc(C(C)(C)O)c(C)n1 (centres unmarked) [drawing 16, reference compound]",–,–,–,–,–,"Herbicidal efficacy against ABUTH [8]: 80; Herbicidal efficacy against ALOMY [9, 12]: 30; Herbicidal efficacy against ECHCG [10, 12]: 30; Herbicidal efficacy against LOLRI (LOLRI: Lolium rigidum): 0; Herbicidal efficacy against PHBPU (PHBPU: Ipomoea purpurea): 0; Herbicidal efficacy against POLCO [3]: 20; Herbicidal efficacy against SETVI (SETVI: Setaria viridis; [12]): 80"
"Cc1cc2c(s1)CCCC2Nc1ncc(C(C)O)c(C)n1 (centres unmarked) [drawing 17, reference compound]",–,–,–,–,–,"Herbicidal efficacy against ABUTH [8]: 0; Herbicidal efficacy against ALOMY [9, 12]: 0; Herbicidal efficacy against ECHCG [10, 12]: 0; Herbicidal efficacy against LOLRI (LOLRI: Lolium rigidum): 0; Herbicidal efficacy against PHBPU (PHBPU: Ipomoea purpurea): 0; Herbicidal efficacy against POLCO [3]: 20; Herbicidal efficacy against SETVI (SETVI: Setaria viridis; [12]): 20"
"Cc1cc2c(s1)CCCC2Nc1ncc(C(C)(C)O)c(C)n1 (centres unmarked) [drawing 18, reference compound]",–,–,–,–,–,"Herbicidal efficacy against ALOMY [9, 13]: 20; Herbicidal efficacy against AMARE [1]: 20; Herbicidal efficacy against ECHCG [10, 13]: 30; Herbicidal efficacy against HORMU (HORMU: Hordeum murinum): 10; Herbicidal efficacy against MATIN [2]: 20; Herbicidal efficacy against SETVI (SETVI: Setaria viridis; [13]): 20; Herbicidal efficacy against STEME (STEME: Stellaria media [11]): 30"
"Cc1cc2c(s1)CCCC2Nc1ncc(C(C)O)c(C)n1 (centres unmarked) [drawing 19, reference compound]",–,–,–,–,–,"Herbicidal efficacy against ALOMY [9, 13]: 10; Herbicidal efficacy against AMARE [1]: 30; Herbicidal efficacy against ECHCG [10, 13]: 40; Herbicidal efficacy against HORMU (HORMU: Hordeum murinum): 0; Herbicidal efficacy against MATIN [2]: 20; Herbicidal efficacy against SETVI (SETVI: Setaria viridis; [13]): 20; Herbicidal efficacy against STEME (STEME: Stellaria media [11]): 20"
